Results on eleven molecules are retold here after PMC6112376, “Comprehensive Analyses and Prioritization of Tox21 10K Chemicals Affecting Mitochondrial Function by in-Depth Mechanistic Studies” (Environmental Health Perspectives, 2018).

For series [1], the system named is rat primary hepatocytes.
For series [2], the system named is HepG2 cells. The following applies: cited from earlier work.
Series [3] relates to rat primary hepatocytes. The series can be described thus: MMP assay in rat primary hepatocytes. The following applies: for IC50: Rattus norvegicus, Hepatocyte, read-out: MMP assays IC50 (µM) Rat Hepatocytes.
Series [4] deals with HepG2 cells. The series can be described thus: cells. The following applies: Homo sapiens; for IC50: HepG2, read-out: MMP assays IC50 (µM) HepG2; for Emax: HepG2, read-out: MMP assays efficacy (%) HepG2.
The mark [5] stands for this setting: read-out: MMP assays IC50 (µM) qHTS-HepG2.
The mark [6] stands for this setting: read-out: MMP assays IC50 (µM), qHTS-HepG2.

Counter-ions that a name gives are not always drawn. Like-named read-outs stand apart in the source and are kept apart here.

As a reminder, the IC50 is the concentration at which inhibition is half-maximal. Regarding `Cl[Si](Cl)(c1ccccc1)c1ccccc1` [Dichlorodiphenylsilane], the “MMP assays efficacy (%) Rat Hepatocytes” value in the series with rat primary hepatocytes [1] was “inactive”. Moreover, the “MMP assays efficacy (%) qHTS-HepG2” value in the series with HepG2 cells [2] is given as -106±4%. Further, the IC50 in the series on HepG2 cells [2] (setting [5]) was 13 ± 9.66 µM; with HepG2 cells [4] it was 22.4 µM. The “MMP assays IC50 (µM) Rat Hepatocytes” value in the series with rat primary hepatocytes [3] is “inactive”. Also, the Emax in the series with HepG2 cells [4] came out at 109%.

On to `COc1ccc2cc3[n+](cc2c1OC)CCc1cc2c(cc1-3)OCO2` [Berberine chloride], for which the “MMP assays efficacy (%) Rat Hepatocytes” value with rat primary hepatocytes [1] is -101±32%. Moreover, the “MMP assays efficacy (%) qHTS-HepG2” value with HepG2 cells [2] is -95±8%. Moreover, the IC50 is 2.03 ± 1.29 µM with HepG2 cells [2] (setting [5]), 6.03 ± 3.78 µM in the series with rat primary hepatocytes [3] and 3.46 µM in the series with HepG2 cells [4]. Besides, the Emax in the series with HepG2 cells [4] is 92%.

Turning to `CCOc1ccccc1OCCN[C@H](C)Cc1ccc(OC)c(S(N)(=O)=O)c1` [Tamsulosin hydrochloride], the “MMP assays efficacy (%) Rat Hepatocytes” value with rat primary hepatocytes [1] is on record as -45±27%. Further, the “MMP assays efficacy (%) qHTS-HepG2” value in the series with HepG2 cells [2] is recorded as -70±8%. Also, the values for the 50% inhibitory concentration (IC50) in the series with HepG2 cells [2] (setting [6]), with rat primary hepatocytes [3] and in the series with HepG2 cells [4] were 27.2 ± 2.92 µM, 25.1 ± 8.04 µM and 30.8 µM, respectively. In addition, the Emax with HepG2 cells [4] is 80%.

Consider `CC(C)(c1ccccc1)c1ccc(O)cc1` [Compound 4-Cumylphenol], for which, in the series with rat primary hepatocytes [1], the “MMP assays efficacy (%) Rat Hepatocytes” value is -77±17%. The “MMP assays efficacy (%) qHTS-HepG2” value in the series with HepG2 cells [2] was -103±17%. Further, the values for the IC50 with HepG2 cells [2] (setting [5]), in the series with rat primary hepatocytes [3] and with HepG2 cells [4] were 3.7 ± 0.82 µM, 48 ± 11.6 µM and 3.55 µM, respectively. Besides, the Emax with HepG2 cells [4] came out at 108%.

Consider `O=C1OC(c2ccc(O)cc2)(c2ccc(O)cc2)c2ccccc21` [Phenolphthalein], for which, in the series with rat primary hepatocytes [1], the “MMP assays efficacy (%) Rat Hepatocytes” value is -98±24%. Also, the “MMP assays efficacy (%) qHTS-HepG2” value in the series on HepG2 cells [2] was -103±24%. Further, the IC50 in the series with HepG2 cells [2] (setting [6]) is 42.8 ± 2.74 µM; with rat primary hepatocytes [3], 39.5 ± 16.9 µM; in the series on HepG2 cells [4], 25.1 µM. Moreover, the Emax in the series with HepG2 cells [4] is 132%.

Take `Clc1ccc(C(c2ccccc2Cl)C(Cl)(Cl)Cl)cc1` (stereo not drawn) [o,p'-DDT]: the “MMP assays efficacy (%) Rat Hepatocytes” value in the series on rat primary hepatocytes [1] was “inactive”. The “MMP assays efficacy (%) qHTS-HepG2” value in the series with HepG2 cells [2] is -86±11%. Besides, the concentration for half-maximal inhibition (IC50) is 24 ± 12.1 µM in the series with HepG2 cells [2] (setting [6]) and 25.1 µM in the series on HepG2 cells [4]. Also, the “MMP assays IC50 (µM) Rat Hepatocytes” value in the series on rat primary hepatocytes [3] is “inactive”. Also, in the series with HepG2 cells [4], the Emax stood at 101%.

Turning to `O=P(OCC(Br)CBr)(OCC(Br)CBr)OCC(Br)CBr` (stereo not drawn) [Tris(2,3-dibromopropyl) phosphate], in the series with rat primary hepatocytes [1], the “MMP assays efficacy (%) Rat Hepatocytes” value was -91±11%. The “MMP assays efficacy (%) qHTS-HepG2” value with HepG2 cells [2] was -99±7%. Also, the IC50 in the series with HepG2 cells [2] (setting [6]) was 45.8 ± 8.72 µM; in the series on rat primary hepatocytes [3], 44 ± 10.7 µM; with HepG2 cells [4], 50.1 µM. Also, the Emax with HepG2 cells [4] came to 110%.

For `O=c1oc2ccccc2c(O)c1C1CCCc2ccccc21` (stereo not drawn) [Coumatetralyl], the “MMP assays efficacy (%) Rat Hepatocytes” value in the series with rat primary hepatocytes [1] was -110±37%. The “MMP assays efficacy (%) qHTS-HepG2” value in the series on HepG2 cells [2] is -144±2%. The 50% inhibitory concentration (IC50) in the series with HepG2 cells [2] (setting [5]) is 13.7 ± 4.84 µM; in the series with rat primary hepatocytes [3], 13.8 ± 8.1 µM; in the series with HepG2 cells [4], 35.5 µM. For the same molecule, the Emax with HepG2 cells [4] came to 124%.

In the case of `CCCN(CCC)c1c([N+](=O)[O-])cc(C(F)(F)F)cc1[N+](=O)[O-]` [Trifluralin], the “MMP assays efficacy (%) Rat Hepatocytes” value in the series with rat primary hepatocytes [1] is reported as -53±24%. The “MMP assays efficacy (%) qHTS-HepG2” value in the series with HepG2 cells [2] is listed as -53±8%. The values for the concentration for half-maximal inhibition (IC50) with HepG2 cells [2] (setting [6]), in the series on rat primary hepatocytes [3] and in the series with HepG2 cells [4] were 46.7 ± 9.14 µM, 32.6 ± 23.1 µM and 39.8 µM, respectively. Moreover, the Emax in the series on HepG2 cells [4] was 78%.

As for `C[C@]12CCC(=O)C[C@@H]1CC[C@@H]1[C@@H]2CC[C@]2(C)[C@@H](O)CC[C@@H]12` [Compound 5alpha-Dihydrotestosterone], in the series on rat primary hepatocytes [1], the “MMP assays efficacy (%) Rat Hepatocytes” value is “inactive”. Moreover, the “MMP assays efficacy (%) qHTS-HepG2” value in the series with HepG2 cells [2] is -72±9%. Moreover, the IC50 in the series with HepG2 cells [2] (setting [5]) was 13.3 ± 6.16 µM. The “MMP assays IC50 (µM) Rat Hepatocytes” value in the series with rat primary hepatocytes [3] is “inactive”. In the series on HepG2 cells [4], the IC50 amounted to 17.3 µM and the Emax stood at 45%.

With `Oc1ccc2ccc3cccc4ccc1c2c34` [Compound 1-Hydroxypyrene], the “MMP assays efficacy (%) Rat Hepatocytes” value in the series with rat primary hepatocytes [1] is reported as -49±25%. Moreover, the “MMP assays efficacy (%) qHTS-HepG2” value in the series on HepG2 cells [2] is on record as -110±22%. For the same molecule, the half-inhibitory concentration (IC50) in the series on HepG2 cells [2] (setting [5]) is 4.67 ± 1.95 µM; in the series on rat primary hepatocytes [3] it was 33.5 ± 2.73 µM; in the series on HepG2 cells [4], 7.08 µM. In addition, the Emax in the series on HepG2 cells [4] stood at 99%.
